1 molecule from patent publication US12714576B2, “System and method for treatment of bone” (SHANKAR RAJESWARAN M.D. LLC, priority 2020, dated 2026) can be followed below.

The data set concerns unicameral bone cyst (UBC). The data set can be described thus: Retrospective evaluation of pediatric patients with UBC treated by doxycycline chemical curettage (sclerotherapy) and injection of synthetic bone graft. In kind it is in vivo. Here is the method:
Summary. Retrospective evaluation of twelve pediatric patients, ages 5-14 years, undergoing treatment for a UBC, at a single institution. All UBCs were treated in a single, minimally invasive, image guided procedure using percutaneous needle access into the UBC followed by chemical curettage (a form of sclerotherapy) and injection of regenerative synthetic graft. Patients were followed clinically, and with serial radiographs, to evaluate for healing and complications. Mean time to return to full activity was 2.2 months post procedure, with a mean clinical follow-up time of 9.2 months.
Methods. Fifteen patients were initially enrolled in this IRB approved study from August 2018 through May 2020. The diagnosis of UBC was made via radiographs and/or magnetic resonance imaging (MRI).
Combination sclerotherapy and graft injection with CaSO4—CaPO4 was performed in a single setting as an outpatient procedure with an average procedure time of 45 minutes (range 30-60 minutes). Mean volume of doxycycline instilled during cyst sclerotherapy was 52 mL (20 mg/ml and a range 20-100 mL). Mean volume of CaSO4—CaPO4 synthetic graft material administered was 28 mL (range 4-90 mL).
Patients were followed clinically for a minimum of three months post procedure, with radiographs performed at follow-up visits. One patient was excluded as they had imaging consistent with a fractured UBC that had subsequently rehealed into multiple cysts, and 2 other patients were excluded secondary to follow up of less than 3 months.
Assessment of treatment response was evaluated using the Modified Neer Classification of Radiographic Healing, as shown above in Table 1. All radiographs were evaluated by four attending pediatric radiologists.
Procedure Technique. All procedures were performed under general anesthesia. For each procedure, the cyst was localized under fluoroscopy, and the upper and lower margins of the cyst were marked on the skin. Ultrasound mapping of the area of concern was performed to identify critical structures such as arteries or nerves. However, the cyst itself could often be visualized sonographically due to associated cortical thinning.
A 5 mm incision was made at each cyst margin as marked on the skin, and an 11-gauge or 14-gauge “treatment” needle was advanced into the cyst percutaneously. Choice of needle gauge was determined by cyst size and the expected amount of synthetic graft to be administered, with 11-gauge needles used in larger cysts. A second 5 mm incision was made along the remaining marked margin of the lesion, and a 14-gauge or 16-gauge “venting” needle was placed.
Next, Omnipaque-180 (GE Healthcare), a water-soluble iodinated contrast, was diluted with sterile saline in a 1:1 ratio and was injected via the treatment needle during fluoroscopic visualization, taking care to ensure fluid egress via the venting needle. Contrast injection was performed to confirm a cystic nature of the UBC, to ensure adequate diffusion of the injected contrast throughout the cystic cavity, as well as to assess the presence of unexpected significant vascular outflow. Occasionally, an incomplete septation within the cyst was encountered, likely secondary healing change related to a prior pathologic fracture or prior treatment.
Doxycycline (20 mg/mL), in a volume to match the cyst volume, was injected through the treatment needle and aspirated through the venting needle in a push-pull fashion, irrigating the cyst for one minute. The doxycycline was allowed to dwell for another nine minutes. A second round of sclerosant irrigation was then performed using similar technique and fresh doxycycline solution; thus, the total duration of doxycycline sclerotherapy was 20 minutes.
Utilizing the cyst volume determined during initial contrast injection, a similar volume of synthetic bone graft material was prepared and injected through the treatment needle during live fluoroscopy. […]

Structures are written as SMILES. Where “and” joins values, the source holds several entries; their conditions need not be identical. Equal entries are not always repeated.

Take `C[C@H]1c2cccc(O)c2C(=O)C2=C(O)[C@]3(O)C(=O)C(C(N)=O)=C(O)[C@@H](N(C)C)[C@@H]3[C@@H](O)[C@@H]21` [doxycycline]: the “Patients with healing of the UBC (Modified Neer class 1)” value (10 of 12 patients, most recent follow-up radiographs) is listed as 83%. In addition, under “11 of 12 patients, most recent follow-up”, the “Patients showing healed cysts (Modified Neer classes 1 or 2)” value is 91.7%. Also, where the note is “12 patients”, the “Adverse events related to the procedures” value was “no adverse events related to the procedures” and the Perioperative complications entry is on record as “No perioperative complications were observed”. For the setting “one line per patient (patients 1-12), doxycycline 20 mg/mL sclerotherapy followed by CaSO4-CaPO4 synthetic graft (PRO-DENSE)”, the “Return to Activities (mo)” value is 1.0 mo and 0.8 mo and 1.9 mo and 2.1 mo and 1.3 mo and 1.6 mo (2×) and 1.2 mo and 3.1 mo and 4.8 mo and 2.8 mo and 3.7 mo. Also, the “Patients with healing with a small defect (Modified Neer class 2)” value (one of 12 patients, most recent follow-up radiographs) is reported as 8%.
